Results from patent US20250051276A1 (priority 2021, published 2025).

What was measured:
[1] = molecular target: 5-HT2Cedited (accession number AAF35842.1) (Homo sapiens, UniProt P28335, I156V/I160V/N158S); experiment: biochemical; format: binding
[2] = molecular target: human recombinant 5-HT2Cedited receptor (Homo sapiens, UniProt P28335, I156V/I160V/N158S); experiment: cell-based
human recombinant 5-HT2Cedited receptor, sequence (P28335 33-458 I156V/N158S/I160V limits assumed): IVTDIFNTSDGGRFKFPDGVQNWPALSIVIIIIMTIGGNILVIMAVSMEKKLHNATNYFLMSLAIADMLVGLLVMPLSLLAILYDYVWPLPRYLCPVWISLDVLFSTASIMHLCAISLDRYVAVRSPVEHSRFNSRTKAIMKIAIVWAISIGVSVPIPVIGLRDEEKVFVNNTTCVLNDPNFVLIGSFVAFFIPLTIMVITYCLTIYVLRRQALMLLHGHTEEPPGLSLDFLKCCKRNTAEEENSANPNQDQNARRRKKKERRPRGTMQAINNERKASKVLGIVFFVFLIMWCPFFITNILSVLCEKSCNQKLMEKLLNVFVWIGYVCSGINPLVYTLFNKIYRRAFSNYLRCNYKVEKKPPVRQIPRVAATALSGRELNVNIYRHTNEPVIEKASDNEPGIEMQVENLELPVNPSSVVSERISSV

5-HT2Cedited (accession number AAF35842.1), sequence (P28335 whole entry I156V/N158S/I160V, looked up): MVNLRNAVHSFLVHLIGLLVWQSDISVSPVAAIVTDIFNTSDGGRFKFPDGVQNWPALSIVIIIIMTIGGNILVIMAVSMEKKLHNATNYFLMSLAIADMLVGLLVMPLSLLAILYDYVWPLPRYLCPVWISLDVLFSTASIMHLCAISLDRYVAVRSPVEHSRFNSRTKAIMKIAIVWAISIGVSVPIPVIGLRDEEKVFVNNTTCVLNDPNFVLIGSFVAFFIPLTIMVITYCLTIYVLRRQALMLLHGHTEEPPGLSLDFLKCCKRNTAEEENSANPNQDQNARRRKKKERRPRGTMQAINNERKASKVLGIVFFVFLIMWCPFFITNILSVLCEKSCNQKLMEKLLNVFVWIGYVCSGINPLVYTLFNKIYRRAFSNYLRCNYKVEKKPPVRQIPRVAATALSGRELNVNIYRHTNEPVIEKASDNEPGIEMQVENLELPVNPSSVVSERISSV

Row | SMILES | IC50 [1] | EC50 [2]
1 | C[C@H](Cn1ccc2nc(OCc3ccccc3)ccc21)N(C)C [Compound 1, (R)-1-(5-(benzyloxy)-1H-pyrrolo[3,2-b]pyridin-1-yl)-N,N-dimethylpropan-2-amine] | 1000 to 10000 nM | > 10000 nM
2 | C[C@@H](N)Cn1ccc2nc(OCc3ccccc3)ccc21 [Compound 2, (R)-1-(5-(benzyloxy)-1H-pyrrolo[3,2-b]pyridin-1-yl)propan-2-amine] | > 10000 nM | > 10000 nM
3 | C[C@H](Cn1ccc2cc(OCc3ccccc3)ccc21)N(C)C [Compound 3, (R)-1-(5-(benzyloxy)-1H-indol-1-yl)-N,N-dimethylpropan-2-amine] | 101 to 1000 nM | 1000 to 10000 nM
4 | CN[C@H](C)Cn1ccc2cc(OCc3ccccc3)ccc21 [Compound 4, (R)-1-(5-(benzyloxy)-1H-indol-1-yl)-N-methylpropan-2-amine] | 1000 to 10000 nM | 1000 to 10000 nM
5 | C[C@@H](N)Cn1ccc2cc(OCc3ccc(F)cc3)ccc21 [Compound 5, (R)-1-(5-((4-fluorobenzyl)oxy)-1H-indol-1-yl)propan-2-amine] | 101 to 1000 nM | 1000 to 10000 nM
6 | C[C@@H](N)Cn1ccc2cc(OCc3cccc(F)c3)ccc21 [Compound 6, (R)-1-(5-((3-fluorobenzyl)oxy)-1H-indol-1-yl)propan-2-amine] | 101 to 1000 nM | 1000 to 10000 nM
7 | C[C@@H](N)Cn1ccc2cc(OCc3ccccc3F)ccc21 [Compound 7, (R)-1-(5-((2-fluorobenzyl)oxy)-1H-indol-1-yl)propan-2-amine] | 1000 to 10000 nM | 1000 to 10000 nM
8 | C[C@H](Cn1ccc2cc(OCc3ccc(F)cc3)ccc21)N(C)C [Compound 8, (R)-1-(5-((4-fluorobenzyl)oxy)-1H-indol-1-yl)-N,N-dimethylpropan-2-amine] | 101 to 1000 nM | > 10000 nM
9 | C[C@H](Cn1ccc2cc(OCc3cccc(F)c3)ccc21)N(C)C [Compound 9, (R)-1-(5-((3-fluorobenzyl)oxy)-1H-indol-1-yl)-N,N-dimethylpropan-2-amine] | 101 to 1000 nM | > 10000 nM
10 | C[C@H](Cn1ccc2cc(OCc3ccccc3F)ccc21)N(C)C [Compound 10, (R)-1-(5-((2-fluorobenzyl)oxy)-1H-indol-1-yl)-N,N-dimethylpropan-2-amine] | 101 to 1000 nM | > 10000 nM
11 | CCN(CC)[C@H](C)Cn1ccc2cc(OCc3ccccc3)ccc21 [Compound 11, (R)-1-(5-(benzyloxy)-1H-indol-1-yl)-N,N-diethylpropan-2-amine] | 1000 to 10000 nM | > 10000 nM
12 | C[C@H](Cn1ccc2cc(OCc3ccccc3)ccc21)N1CCCC1 [Compound 12, (R)-5-(benzyloxy)-1-(2-(pyrrolidin-1-yl)propyl)-1H-indole] | 1000 to 10000 nM | > 10000 nM
